US7317115B2, “Mandelates salts of substituted tetracyclic tetrahydrofuran derivatives” (Janssen Pharmaceutica, N.V., priority 2001, dated 2008)
“Also recorded” adds a separate entry of the source.

Assays:
Format in all cases: physicochemical
[1] = Crystallographic stability (TGA, DSC, IR after storage); settings: for crystallographic stability: storage two weeks under different relative humidities; on IR: key: ~Ref: identical with reference
Protocol: The stability of the crystal structure of the salt is studied after storage of the compounds for a period of two weeks at room temperature (RT) under either 5%, 75% and 25° C./60% relative humidity (RH). The samples are analyzed with thermogravimetry (TGA), differential scanning calorimetry (DSC) and infrared spectroscopy (IR).

[2] = Chemical stability (HPLC and visual inspection after storage); settings: for HPLC Sum of impurities: in % (unit assumed); for chemical stability: storage 2, 4 and 8 weeks under different conditions
Protocol: In the chemical stability test program the salts are stored for periods of 2, 4 and 8 weeks under different conditions. These conditions are 40° C./75% RH, 50° C., daylight, RT/5% RH, RT/75% RH, 25° C./60% RH and artificial light. The mandelate salt and the ditoluoyltartrate salt are also stored 8 hours in 0.3 da ICH light. The compounds are analyzed after storage by HPLC and by visual inspection.

[3] = Adsorption and desorption of water; settings: 25° C., different relative humidity
Protocol: The adsorption and desorption of water at 25° C. at different conditions of relative humidity is investigated on an amount of ±10 mg of each salt. The weight change as a function of relative humidity is registered.

[4] = 0.3 da ICH light (2 weeks column; text: 8 hours)
[5] = listed as (+)ditoluoyltartrate salt

For `CNCC1CC2c3ccccc3Cc3ccc(F)cc3C2O1.O=C(O)C(O)c1ccccc1` (single isomer, unassigned) [Compound 1, B-(2α,3aα,12bβ)-11-fluoro-3,3a,8,12b-tetrahydro-N-methyl-2H-dibenzo-[3,4:6,7]cyclohepta[1,2-b]furan-2 methanamine], the Appearance ([1]; 0 days) was “white”, the “DSC Max” value ([1]; 0 days) was 229.5 °C and the “DSC ΔH” value ([1]; 0 days) was 141.1 J/g. For the same compound, the TGA <100° C. ([1]; 0 days) was 0.1%, the crystallographic stability ([1]; listed as mandelate salt) was “crystallographically and chemically stable” and the crystallographic stability ([1]; listed as mandelic acid salt) was “crystallographic stable”. For the same compound, the Appearance ([1]; two weeks, 25° C./60% RH) was “white”, the “DSC Max” value ([1]; two weeks, 25° C./60% RH) was 229.1 °C and the “DSC ΔH” value ([1]; two weeks, 25° C./60% RH) was 139.0 J/g. The IR ([1]; two weeks, 25° C./60% RH) was “~Ref”, the TGA <100° C. ([1]; two weeks, 25° C./60% RH) was 0.1% and the Appearance ([1]; two weeks, RT/75% RH) was “white”. The “DSC Max” value ([1]; two weeks, RT/75% RH) was 229.4 °C, the “DSC ΔH” value ([1]; two weeks, RT/75% RH) was 137.6 J/g and the IR ([1]; two weeks, RT/75% RH) was “~Ref”. The TGA <100° C. ([1]; two weeks, RT/75% RH) was 0.1%, the Appearance ([1]; two weeks, RT/<5% RH) was “white” and the “DSC Max” value ([1]; two weeks, RT/<5% RH) was 229.1 °C. The “DSC ΔH” value ([1]; two weeks, RT/<5% RH) was 140.2 J/g, the IR ([1]; two weeks, RT/<5% RH) was “~Ref” and the TGA <100° C. ([1]; two weeks, RT/<5% RH) was 0.1%. The Appearance [2, 4] was “white”, the “HPLC Sum of impurities” value [2, 4] was 1.70 and the Appearance ([2]; 25° C./60% RH, 4 weeks) was “white”. For the same compound, the “HPLC Sum of impurities” value ([2]; 25° C./60% RH, 4 weeks) was 1.71, the Appearance ([2]; 25° C./60% RH, 8 weeks) was “white” and the “HPLC Sum of impurities” value ([2]; 25° C./60% RH, 8 weeks) was 1.69. The Appearance ([2]; 40° C./75% RH, 2 weeks) was “white”, the “HPLC Sum of impurities” value ([2]; 40° C./75% RH, 2 weeks) was 1.73 and the Appearance ([2]; 40° C./75% RH, 4 weeks) was “white”. The “HPLC Sum of impurities” value ([2]; 40° C./75% RH, 4 weeks) was 1.73, the Appearance ([2]; 40° C./75% RH, 8 weeks) was “white” and the “HPLC Sum of impurities” value ([2]; 40° C./75% RH, 8 weeks) was 1.70. The Appearance ([2]; 50° C., 2 weeks) was “white”, the “HPLC Sum of impurities” value ([2]; 50° C., 2 weeks) was 1.74 and the Appearance ([2]; 50° C., 4 weeks) was “white”. For the same compound, the “HPLC Sum of impurities” value ([2]; 50° C., 4 weeks) was 1.75, the Appearance ([2]; 50° C., 8 weeks) was “white” and the “HPLC Sum of impurities” value ([2]; 50° C., 8 weeks) was 1.70. For the same compound, the Appearance ([2]; Artificial light (2 weeks)) was “white”, the “HPLC Sum of impurities” value ([2]; Artificial light (2 weeks)) was 1.70 and the Appearance ([2]; Daylight, 2 weeks) was “white”. The “HPLC Sum of impurities” value ([2]; Daylight, 2 weeks) was 1.73, the Appearance ([2]; Daylight, 4 weeks) was “white” and the “HPLC Sum of impurities” value ([2]; Daylight, 4 weeks) was 1.71. The Appearance ([2]; Daylight, 8 weeks) was “white”, the “HPLC Sum of impurities” value ([2]; Daylight, 8 weeks) was 1.72 and the Appearance ([2]; RT/75% RH, 4 weeks) was “white”. The “HPLC Sum of impurities” value ([2]; RT/75% RH, 4 weeks) was 1.75, the Appearance ([2]; RT/75% RH, 8 weeks) was “white” and the “HPLC Sum of impurities” value ([2]; RT/75% RH, 8 weeks) was 1.76. The Appearance ([2]; RT/<5% RH, 4 weeks) was “white”, the “HPLC Sum of impurities” value ([2]; RT/<5% RH, 4 weeks) was 1.73 and the Appearance ([2]; RT/<5% RH, 8 weeks) was “white”. The “HPLC Sum of impurities” value ([2]; RT/<5% RH, 8 weeks) was 1.72, the Appearance ([2]; Reference (2 weeks)) was “white” and the “HPLC Sum of impurities” value ([2]; Reference (2 weeks)) was 1.72. For the same compound, the chemical stability ([2]; listed as mandelate salt) was “chemically stable in all investigated conditions; also recorded: crystallographically and chemically stable” and the “water adsorption/desorption behaviour (weight change as a function of relative humidity)” value ([3]; listed as mandelate salt) was “stable towards moisture uptake over the whole range of humidity; also recorded: good adsorption/desorption profile”.

For `CNCC1CC2c3ccccc3Cc3ccc(F)cc3C2O1.O=C(O)CC(=O)O` (single isomer, unassigned) [malonate salt, B-(2α,3aα,12bβ)-11-fluoro-3,3a,8,12b-tetrahydro-N-methyl-2H-dibenzo-[3,4:6,7]cyclohepta[1,2-b]furan-2 methanamine], the “water adsorption/desorption behaviour (weight change as a function of relative humidity)” value [3] was “less stable but the weight change as a function of the relative humidity is very small”.

With `CNCC1CC2c3ccccc3Cc3ccc(F)cc3C2O1.O=C(O)CCC(=O)O` (single isomer, unassigned) [succinate salt, B-(2α,3aα,12bβ)-11-fluoro-3,3a,8,12b-tetrahydro-N-methyl-2H-dibenzo-[3,4:6,7]cyclohepta[1,2-b]furan-2 methanamine] the “water adsorption/desorption behaviour (weight change as a function of relative humidity)” value [3] was “less stable but the weight change as a function of the relative humidity is very small”.

For “B-(2α,3aα,12bβ)-11-fluoro-3,3a,8,12b-tetrahydro-N-methyl-2H-dibenzo-[3,4:6,7]cyclohepta[1,2-b]furan-2 methanamine [(+)ditoluoyltartrate]”, the Appearance ([1]; 0 days) was “white”, the “DSC Max” value ([1]; 0 days) was 173.7 °C and the “DSC ΔH” value ([1]; 0 days) was 71.9 J/g. For the same compound, the TGA <100° C. ([1]; 0 days) was 0.2%, the crystallographic stability [1, 5] was “crystallographic stable; also recorded: crystallographically stable” and the Appearance ([1]; two weeks, 25° C./60% RH) was “white”. The “DSC Max” value ([1]; two weeks, 25° C./60% RH) was 177.6 °C, the “DSC ΔH” value ([1]; two weeks, 25° C./60% RH) was 74.7 J/g and the IR ([1]; two weeks, 25° C./60% RH) was “~Ref”. For the same compound, the TGA <100° C. ([1]; two weeks, 25° C./60% RH) was 0.1%, the Appearance ([1]; two weeks, RT/75% RH) was “white” and the “DSC Max” value ([1]; two weeks, RT/75% RH) was 178.6 °C. The “DSC ΔH” value ([1]; two weeks, RT/75% RH) was 70.8 J/g, the IR ([1]; two weeks, RT/75% RH) was “~Ref” and the TGA <100° C. ([1]; two weeks, RT/75% RH) was 0.2%. The Appearance ([1]; two weeks, RT/<5% RH) was “white”, the “DSC Max” value ([1]; two weeks, RT/<5% RH) was 175.6 °C and the “DSC ΔH” value ([1]; two weeks, RT/<5% RH) was 78.7 J/g. For the same compound, the IR ([1]; two weeks, RT/<5% RH) was “~Ref”, the TGA <100° C. ([1]; two weeks, RT/<5% RH) was 0.3% and the Appearance [2, 4] was “white”. The “HPLC Sum of impurities” value [2, 4] was 1.41, the Appearance ([2]; 40° C./75% RH, 2 weeks) was “white” and the “HPLC Sum of impurities” value ([2]; 40° C./75% RH, 2 weeks) was 0.98. For the same compound, the Appearance ([2]; 40° C./75% RH, 4 weeks) was “white”, the “HPLC Sum of impurities” value ([2]; 40° C./75% RH, 4 weeks) was 1.00 and the Appearance ([2]; 40° C./75% RH, 8 weeks) was “white”. The “HPLC Sum of impurities” value ([2]; 40° C./75% RH, 8 weeks) was 1.09, the Appearance ([2]; 50° C., 2 weeks) was “white” and the “HPLC Sum of impurities” value ([2]; 50° C., 2 weeks) was 1.06. The Appearance ([2]; 50° C., 4 weeks) was “white”, the “HPLC Sum of impurities” value ([2]; 50° C., 4 weeks) was 1.22 and the Appearance ([2]; 50° C., 8 weeks) was “white”. For the same compound, the “HPLC Sum of impurities” value ([2]; 50° C., 8 weeks) was 1.25, the Appearance ([2]; Artificial light (2 weeks)) was “white” and the “HPLC Sum of impurities” value ([2]; Artificial light (2 weeks)) was 1.57. The Appearance ([2]; Daylight, 2 weeks) was “white”, the “HPLC Sum of impurities” value ([2]; Daylight, 2 weeks) was 1.26 and the Appearance ([2]; Daylight, 4 weeks) was “white”. The “HPLC Sum of impurities” value ([2]; Daylight, 4 weeks) was 1.65, the Appearance ([2]; Daylight, 8 weeks) was “white-yellow” and the “HPLC Sum of impurities” value ([2]; Daylight, 8 weeks) was 1.74. The Appearance ([2]; Reference (2 weeks)) was “white”, the “HPLC Sum of impurities” value ([2]; Reference (2 weeks)) was 1.01 and the chemical stability [2, 5] was “shows a sensitivity towards temperature and light”. For the same compound, the “water adsorption/desorption behaviour (weight change as a function of relative humidity)” value [3, 5] was “less stable but the weight change as a function of the relative humidity is very small; also recorded: good adsorption desorption profile”.

For “B-(2α,3aα,12bβ)-11-fluoro-3,3a,8,12b-tetrahydro-N-methyl-2H-dibenzo-[3,4:6,7]cyclohepta[1,2-b]furan-2 methanamine [Citrate]”, the Appearance ([1]; 0 days) was “yellowish”, the “DSC Max” value ([1]; 0 days) was “amorphous” and the crystallographic stability ([1]; listed as citrate salt) was “amorphous and liquefies at RT/75% RH”. The Appearance ([1]; two weeks, RT/75% RH) was “liquefied”, the Appearance ([2]; 40° C./75% RH, 2 weeks) was “liquefied” and the “HPLC Sum of impurities” value ([2]; 40° C./75% RH, 2 weeks) was 4.83. For the same compound, the Appearance ([2]; 40° C./75% RH, 4 weeks) was “liquefied”, the “HPLC Sum of impurities” value ([2]; 40° C./75% RH, 4 weeks) was 7.91 and the Appearance ([2]; 40° C./75% RH, 8 weeks) was “liquefied”. The “HPLC Sum of impurities” value ([2]; 40° C./75% RH, 8 weeks) was 10.62, the Appearance ([2]; 50° C., 2 weeks) was “ochre-” and the “HPLC Sum of impurities” value ([2]; 50° C., 2 weeks) was 6.29. The Appearance ([2]; 50° C., 4 weeks) was “ochre-”, the “HPLC Sum of impurities” value ([2]; 50° C., 4 weeks) was 7.47 and the Appearance ([2]; 50° C., 8 weeks) was “orange-”. The “HPLC Sum of impurities” value ([2]; 50° C., 8 weeks) was 9.07, the Appearance ([2]; Artificial light (2 weeks)) was “ochre-” and the “HPLC Sum of impurities” value ([2]; Artificial light (2 weeks)) was 8.99. The Appearance ([2]; Daylight, 2 weeks) was “ochre-”, the “HPLC Sum of impurities” value ([2]; Daylight, 2 weeks) was 5.81 and the Appearance ([2]; Daylight, 4 weeks) was “ochre-”. For the same compound, the “HPLC Sum of impurities” value ([2]; Daylight, 4 weeks) was 5.99, the Appearance ([2]; Daylight, 8 weeks) was “orange-” and the “HPLC Sum of impurities” value ([2]; Daylight, 8 weeks) was 6.31. For the same compound, the Appearance ([2]; RT/75% RH, 4 weeks) was “liquefied”, the “HPLC Sum of impurities” value ([2]; RT/75% RH, 4 weeks) was 4.69 and the Appearance ([2]; RT/75% RH, 8 weeks) was “liquefied”. The “HPLC Sum of impurities” value ([2]; RT/75% RH, 8 weeks) was 4.98, the Appearance ([2]; Reference (2 weeks)) was “yellow” and the “HPLC Sum of impurities” value ([2]; Reference (2 weeks)) was 4.76. The chemical stability ([2]; listed as citrate salt) was “shows degradation in all investigated conditions; also recorded: chemically not stable” and the “water adsorption/desorption behaviour (weight change as a function of relative humidity)” value ([3]; listed as citrate salt) was “hygroscopic and liquefies at high relative humidity”.
